Reference: PMC12781075, “Crosstalk between arachidonic acid metabolism and glycolysis drives integrated metabolic-inflammatory reprogramming in macrophages” (International Journal of Biological Sciences, 2026)

Assays:
[1] = biological target: T1, pyruvate kinase M2 (PKM2) (Mus musculus, UniProt P52480); experiment: ITC; LC/MS/MS peptide mapping of the adduct; CETSA and DARTS in lysates; assay type: binding
T1 construct: gene Pkm; recombinant mouse PKM2 (pET-28a, E. coli)

PKM2(C49S) = biological target: T2, PKM2(C49S) (Mus musculus, UniProt P52480, C49S); experiment: ITC (much weaker than wild type); assay type: binding
T2 construct: gene Pkm; recombinant mouse PKM2 C49S (pET-28a, E. coli)
T2 sequence (P52480 whole entry C49S): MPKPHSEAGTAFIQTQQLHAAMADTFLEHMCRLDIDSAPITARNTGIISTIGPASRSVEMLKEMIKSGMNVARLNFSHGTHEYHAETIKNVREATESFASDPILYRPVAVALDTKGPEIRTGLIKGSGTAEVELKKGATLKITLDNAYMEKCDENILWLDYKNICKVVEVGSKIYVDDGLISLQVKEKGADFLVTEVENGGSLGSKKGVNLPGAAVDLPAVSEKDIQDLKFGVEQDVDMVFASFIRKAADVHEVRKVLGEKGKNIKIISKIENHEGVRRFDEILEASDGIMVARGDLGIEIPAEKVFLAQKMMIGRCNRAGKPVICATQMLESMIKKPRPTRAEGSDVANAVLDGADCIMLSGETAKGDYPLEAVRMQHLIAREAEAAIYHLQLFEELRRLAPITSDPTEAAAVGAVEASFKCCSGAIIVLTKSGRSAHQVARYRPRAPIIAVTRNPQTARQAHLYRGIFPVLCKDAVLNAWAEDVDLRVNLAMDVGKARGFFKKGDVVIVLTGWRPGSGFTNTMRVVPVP

T1 sequence (P52480 whole entry): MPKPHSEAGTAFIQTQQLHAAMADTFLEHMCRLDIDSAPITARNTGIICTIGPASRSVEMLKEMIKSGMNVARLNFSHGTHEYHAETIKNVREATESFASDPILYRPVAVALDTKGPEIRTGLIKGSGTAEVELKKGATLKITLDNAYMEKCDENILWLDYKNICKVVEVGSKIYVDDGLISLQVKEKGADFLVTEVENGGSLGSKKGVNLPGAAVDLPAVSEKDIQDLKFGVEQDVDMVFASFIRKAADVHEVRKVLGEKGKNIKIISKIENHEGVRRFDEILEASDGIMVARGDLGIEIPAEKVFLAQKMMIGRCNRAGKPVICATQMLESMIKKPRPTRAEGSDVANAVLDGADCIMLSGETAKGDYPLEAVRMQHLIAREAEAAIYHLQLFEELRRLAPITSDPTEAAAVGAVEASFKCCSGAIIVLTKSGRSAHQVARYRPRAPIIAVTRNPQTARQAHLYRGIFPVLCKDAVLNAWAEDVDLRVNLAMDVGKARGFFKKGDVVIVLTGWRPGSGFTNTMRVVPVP

Kd [1]: 918 nM
Kd (PKM2(C49S)): 37.6 µM
Structure (SMILES): CCCCCC(=O)/C=C/[C@@H]1[C@@H](C/C=C\CCCC(=O)O)[C@@H](O)C[C@H]1O [15-keto-PGF2α]
